These results are taken from article PMC8907375, “Arylated analogues of cypronazole: fungicidal effect and activity on human fibroblasts. Docking analysis and molecular dynamics simulations” (Natural Products and Bioprospecting, 2022).

One series has as its system B. cinerea. Put plainly: In vivo antifungal activity on infected grapes under greenhouse conditions. More on the design: species or system Botrytis cinerea on Vitis vinifera grapes. The note with it: 7 days; for Efficacy (preventive rate) against B. cinerea on grapes: 2.5 µg/mL; for Efficacy (control effectiveness) against B. cinerea on grapes: 12.5 μg/mL. The protocol:
The potential usefulness of compound 4 against B. cinerea was assessed under greenhouse conditions using infected grapes (in vivo), at 7 days of exposure. The compound was evaluated at 2.5 μg/mL and 12.5 μg/mL, CPZ was used as positive control (at 12.5 μg/mL). […] The blank control (untreated grapes) was completely affected by B cinerea (100% incidence) (Fig. 4).
The in vivo activity was determined on the Vitis vinifera grapes inoculated with a Botrytis cinerea conidia suspension. Appropriate amounts of the tested compounds were dissolved in DMSO and then suspended in the distilled water (DMSO concentration < 2%).
Healthy grapes, previously washed with a diluted solution of sodium hypochlorite, were punctured with 100 ⎧L of a solution of compound 4 (concentration of 12.5 ⎧g/mL and 2.5 ⎧g/mL) and evaporated at room temperature (~ 25 °C) during 24 h to favour the penetration of the compound. The same procedure was carried out with CPZ and the control blank (< 2% DMSO solution). The grapes epidermis was punctured with a sterile inoculation needle (Ø, 4.5 mm), 200 µL of the pathogen was inoculated at a concentration of 5.10^4 UFC/mL. The fruits were incubated at 20 °C to favour fungal growth, and fungal growth was assessed 7 days later. CPZ was used as positive control under the same conditions. The control effectiveness of the target compound was calculated as (1 − c/d) × 100, where c is the diameter of the treatment and d is the diameter of the blank control (˂ 2% DMSO solution).

Series [1] concerns Fusarium oxysporum (M15-Pa). The series is described as follows: In vitro antifungal activity, broth microdilution (MIC100). It counts as cell-based. The note with it: 30 °C, 48 h, total growth inhibition. The protocol:
(§1) Fungal growth was assessed at six concentrations (3.1–100 μg/mL), using enriched Czapek broth in the presence of triazole 1-8 (Fig. 2). Each treatment was carried out in triplicate. The Minimum Inhibitory Concentration (MIC100) was determined and was defined as the minimum concentration required to inhibit the complete fungal growth inhibition under the conditions of the assay. Triadimefon (TDM) and cyproconazole (CPZ) were used as positive control. In order to evaluate the efficacy of the new compounds to control fungi affecting vineyards, imperfect fungi isolated from infected grapes from the province of San Juan in Argentina were employed. Significant differences were determined by t-Student hypothesis test p, at 95% confidence. In general, moderate to good activity was observed compared to the reference compounds as well as some selectivity against microorganisms.
(§2) The imperfect fungi used for the assays included Botrytis cinerea isolated from grapevine samples, Aspergillus fumigatus (ATTC 26934), A. niger (ATCC 9029), A. ustus (PN-S4), A. japonicus (M15C), A. terreus (M16C) and Fusarium oxysporum (M15-Pa) isolated from soil samples from the province of San Juan, Argentina. The microorganisms were grown on Czapek-yeast extract agar (CYA) prepared with yeast extract, K2HPO4, saccharose, agar, distilled water and enriched with a solution of mineral salts (NaNO3, KCl, MgSO4.7H2O and FeSO4.7 H2O). Inocula were adjusted to 1–5 × 10^4 colony forming units (CFU/ mL).
(§3) The minimum inhibitory concentration (MIC) of each compound was evaluated using broth microdilution techniques in 96-well microtiter plates according to the guidelines of the National Committee for Clinical Laboratory Standards for filamentous fungi M 38 A. The starting inoculum was 1–5 × 10^4 CFU/mL in accordance with the Clinical and Laboratory Standards Institute (CLSI, formerly the National Committee for Clinical Laboratory Standards [NCCLS]) (M27-A3 document for yeasts, and M38-A2 document for filamentous fungi).
(§4) Microtiter plates were incubated at 30 °C for Aspergillus and Fusarium, and 22 °C for B. cinerea in a moist and dark chamber. MIC values were recorded after 48 h for Aspergillus and Fusarium spp., and after 72 h for B. cinerea, according to the fungal growth control. TDM and CPZ were used as positive controls (12.5–50 μg/mL). Stock solutions were two-fold diluted with RPMI from 1000 to 0.98 μg/mL (final volume equal to 100 μL), and a final DMSO concentration ≤ 1%. An inoculum suspension (100 μL) was added to each well with the exception of the sterility control. Endpoints were defined as the lowest compound concentration resulting in total growth inhibition (MIC100) compared to the growth in control wells. MICs values ≤ 50 μg/mL were considered of interest. The assay was carried out in triplicate.
(In general: In broth dilution the organism is exposed to a series of concentrations in liquid medium.)

For series [2], the system named is Aspergillus fumigatus (ATTC 26934). The series is described as above. It counts as cell-based. The note with it: A. fumigatus, 30 °C, 48 h, total growth inhibition. The protocol:
as §1, §2, §3, §4

In series [3] the test system is human lung fibroblasts MRC-5. Put plainly: Cytotoxicity, neutral red uptake assay. Format: cell-based. The note with it: MRC-5 fibroblasts, 24 h exposure, neutral red uptake; ± SD; read-out: Cytotoxicity IC50. As to the method: (§5) The cytotoxic effect of the compounds, expressed as cell viability, was assessed on a permanent fibroblast cell line derived from human lung (MRC-5) (ATCC CCL-171). MRC-5 fibroblasts were grown as monolayers in minimum essential Eagle medium (MEM) with Earle’s salts, 2 mM l-glutamine and 2.2 g/L sodium bicarbonate, supplemented with 10% heat inactivated fetal bovine serum (FBS), 100 IU/mL penicillin and 100 µg/mL streptomycin in a humidified incubator with 5% CO2 in the air at 37 °C. Cell passage was maintained between 10 and 16. The medium was changed every 2 days.
(§6) Confluent cultures of MRC-5 fibroblasts were treated with medium containing the compounds at concentrations ranging from 0 to 1000 µM. For comparison purposes, the commercial antifungals CPZ and TDM were used as references, the products were first dissolved in DMSO and then in MEM, supplemented with 2% FBS. The final content of DMSO in the test medium and controls was 1%. Cells were exposed for 24 h to the test medium with or without the compound (control). Each concentration was tested in quadruplicate together with the control, and repeated three times in separate experiments. At the end of the incubation, the neutral red uptake (NRU) assay was carried out. To calculate the IC50 values (concentration that produces a 50% inhibitory effect on the evaluated parameter), the results were transformed to percentage of controls and the IC50 values were graphically obtained from the dose–response curves.

In another series the test system is A. japonicus (M15C). The series is described as follows: In vitro antifungal activity, broth microdilution (MIC100). It counts as cell-based, Aspergillus japonicus. The note with it: 48 h; for Fungicidal activity MIC100, AJ: A. japonicus, 30 °C, total growth inhibition. As to the method:
as §1, §2, §3, §4

Series [4] relates to B. cinerea (isolated from grapes). Described as above. It counts as cell-based, Botrytis cinerea. To be noted: B. cinerea. As to the method: as §1, §2, §3, §4
The next series deals with A. niger (ATCC 9029). The description is as above. The note with it: 48 h, total growth inhibition; for Fungicidal activity MIC100, AN: 30 °C. It counts as cell-based, Aspergillus niger. As to the method:
as §1, §2, §3, §4

The next series deals with A. terreus (M16C). Described as above. The note with it: 48 h; for Fungicidal activity MIC100, AT: A. terreus, 30 °C, total growth inhibition. Format: cell-based, Aspergillus terreus. The protocol: as §1, §2, §3, §4
Another series has as its system A. ustus (PN-S4). The description is as above. It counts as cell-based, Aspergillus ustus. The note with it: 30 °C, 48 h, total growth inhibition. The protocol:
as §1, §2, §3, §4

Series [5] can be described thus: Cytotoxicity, neutral red uptake assay. It counts as cell-based, human. To be noted: human. The protocol:
as §5, §6

Another series relates to B. cinerea hyphae. Put plainly: Effect on B. cinerea hyphal morphology (optical microscopy). It counts as cell-based, Botrytis cinerea. The note with it: 12.5 μg/mL. The protocol: Changes in the hyphae morphology of B. cinerea treated with compound 4 were observed using optical microscopy.
The same procedure was carried out with CPZ and blank control (< 2% DMSO solution).

The mark [6] stands for this setting: 22 °C, 72 h, total growth inhibition.

Converted amounts (≈) assume the structure as drawn. “And” between values parts separate entries of the source, which are not always exact repeats. Equal entries are not always repeated.

As usually defined, the IC50 is the point on the concentration scale where inhibition reaches its midpoint.

Take “1-(4-chlorophenyl)-3-cyclopropyl-2-(1H-1,2,4-triazol-1-yl)butan-1-ol [CPZ, reference compound]”: in the series on B. cinerea, the “Efficacy (preventive rate) against B. cinerea on grapes” value came out at 38.3% and the “Efficacy (control effectiveness) against B. cinerea on grapes” value is reported as 75.3%. In addition, the “Fungicidal activity MIC100, F” value in [1] is ≥ 100 µg/mL. Moreover, the “Fungicidal activity MIC100, AF” value in series [2] is 25 µg/mL and 25 ± 1.4 µg/mL. Further, in series [3], the IC50 came to 267 ± 18.7 µM. Besides, in the series with A. japonicus (M15C), the “Fungicidal activity MIC100, AJ” value is 25 ± 1.3 µg/mL. Further, the “Fungicidal activity MIC100, BC” value in series [4] (setting [6]) was found to be 12.5 ± 0.8 µg/mL. Also, the “Fungicidal activity MIC100, AN” value in the series on A. niger (ATCC 9029) is 25 ± 1.5 µg/mL. Besides, the “Fungicidal activity MIC100, AT” value in the series with A. terreus (M16C) is 15.0 µg/mL and 15 ± 0.9 µg/mL. In addition, the “Fungicidal activity MIC100, AU” value in the series with A. ustus (PN-S4) amounted to 15 ± 0.7 µg/mL.
For the compound `CC(C1CC1)C(O)(Cn1cncn1)c1ccc(-c2ccc(F)cc2)cc1` (stereo not shown) [Compound 4, 3-Cyclopropyl-2-(4’-fluorobiphenyl-4-yl)-1-(1H-1,2,4-triazol1-yl)butan-2-ol], the “Efficacy (preventive rate) against B. cinerea on grapes” value in the series with B. cinerea is 50.6%. Moreover, the “Efficacy (control effectiveness) against B. cinerea on grapes” value with B. cinerea is on record as 100%. The MIC100 (minimum concentration for complete growth inhibition) in series [1] (Fusarium oxysporum, F. oxysporum, read-out: Fungicidal activity MIC100, F) was ≥ 100 µg/mL. In [2], the “Fungicidal activity MIC100, AF” value worked out at 12.5 ± 0.8 µg/mL. In addition, the Minimum inhibitory concentration (MIC100) in series [2] (Aspergillus fumigatus, read-out: Fungicidal activity MIC100, AF) worked out at 12.5 µg/mL (≈ 35.6 µM). This compound displayed an IC50 at 24 h in [5] of 61.1 ± 3.7 µM. In the series on B. cinerea hyphae, the “Hyphal morphology of B. cinerea” value is “morphological alterations, including irregular hyphae, variable diameter and the presence of internal vacuoles”. Besides, the MIC came out at 15 µg/mL (≈ 42.7 µM) in the series on A. japonicus (M15C) (read-out: Fungicidal activity MIC100, AJ) and 35.5 µM (≈ 12.5 µg/mL) in series [4] (Botrytis cinerea, molar conversion of the µg/mL value, read-out: MIC100 against B. cinerea expressed). Also, the “Fungicidal activity MIC100, AJ” value with A. japonicus (M15C) is 15 ± 0.7 µg/mL. In addition, the “Fungicidal activity MIC100, BC” value in series [4] (setting [6]) turned out to be 12.5 ± 0.9 µg/mL. The MIC100 (complete growth inhibition) in series [4] (Botrytis cinerea, 22 °C, 72 h, total growth inhibition, read-out: Fungicidal activity MIC100, BC) was 12.5 µg/mL (≈ 35.6 µM); with A. niger (ATCC 9029) (Aspergillus niger, ATCC9029, 30 °C, read-out: Fungicidal activity MIC100, AN), 10 µg/mL (≈ 28.5 µM); in the series on A. terreus (M16C) (Aspergillus terreus, read-out: Fungicidal activity MIC100, AT, A. terreus, 30 °C, total growth inhibition) it was 10 µg/mL (≈ 28.5 µM); in the series on A. ustus (PN-S4) (Aspergillus ustus, read-out: Fungicidal activity MIC100, AU), 14 µg/mL (≈ 39.8 µM). For the same compound, the “Fungicidal activity MIC100, AN” value in the series on A. niger (ATCC 9029) was 10 ± 0.5 µg/mL. Also, the “Fungicidal activity MIC100, AT” value with A. terreus (M16C) came out at 10 ± 0.4 µg/mL. Besides, in the series on A. ustus (PN-S4), the “Fungicidal activity MIC100, AU” value amounted to 14 ± 0.7 µg/mL.
